# Results: US5278167A, “6-pyridyl substituted pyrimidine derivatives” (Brown University Research Foundation, priority 1992, dated 1994)
# “Also recorded” adds a separate entry of the source. Where two headings read alike, the source gives them in different places.
# Assays:
# HIV-1 = test: anti-HIV activity: protection of T4 lymphocytes from HIV-1 cytolysis (XTT); type: cell-based; details: HIV-1 in CEM cells
# Description: (§1) The procedure used to test the 6-pyridyl substituted pyrimidine derivatives activity against HIV is designed to detect agents acting at any stage of the virus reproductive cycle (see Weislow et al. (1989) J. Nat'l. Cancer Inst. 81:577-586, incorporated by reference herein). The assay basically involves the killing of T4 lymphocytes by HIV. Small amounts of HIV are added to cells, and a complete cycle of virus reproduction is necessary to obtain the required cell killing. Agents that interact virions, cells, or virus gene-products to interfere with viral activities will protect cells from cytolysis. All tests are compared with at least one positive (e.g., AZT-treated) control done at the same time under identical conditions.
# (§2) 1. The candidate pyrimidine derivative is dissolved in dimethyl sulfoxide then diluted 1:100 in cell culture medium before preparing serial half-log10 dilutions. T4 lymphocytes (CEM cell line) are added and after a brief interval HIV-1 is added, resulting in a 1:200 final dilution of the compound. […]
# (§3) 4. Individual wells are analyzed spectrophotomically to quantitate formazan production, and in addition are viewed microscopically for detection of viable cells and confirmation of protective activity. […]
# (§4) The anti-HIV activity profile of 1-benzyloxymethyl-5-ethyl-6-(α-pyridylthio) uracil determined by this procedure has been graphically represented in FIG. 1.
# [1] = toxicity to T4 lymphocytes (CEM cell line), uninfected toxicity control (XTT); type: cell-based; details: human, CEM cells, 6 days, read-out: toxic concentration (IC50)
# Description: as §1, §2, §3, §4
# HCT-8 cells = test: growth inhibition of HCT-8 cells; type: cell-based, human; details: for inhibition at 10 µM / inhibition at 1 µM / inhibition at 3 µM: Homo sapiens, 72 hours; for inhibition at 1 µM: 5-FUra 1 micromolar; for inhibition at 3 µM: 5-FUra 3 micromolar
# Description: (§5) In general, the experiments designed to assess the […] activity of 5-fluoropyrimidines in conjunction with the 6-pyridyl substituted pyrimidine are carried out as follows.
# (§6) Screw cap plastic tissue culture tubes are seeded with identical numbers of cultured tumor cells (approximately 2×10^4 cells/tube) in 4.8 mL RPMI-1640 containing 10% Fetal Bovine Serum (FBS) and 2% HEPES (IM buffer solution). The cultures are incubated overnight, on their sides, at 37° C. in a nonhumidified […] incubator.
# (§7) The following day, the number of cells in duplicate tubes is determined. The media is decanted, the cells rinsed with Hanks' Balanced Salt Solution (calcium, magnesium and bicarbonate free) and replaced with 4.0 mL of trypsin-EDTA solution. The tubes are incubated at 37° C. for 5 minutes, then shaken to loosen the cells from the tube walls. To each tube is then added 1.0 mL of FBS and medium (50:50) in order to stop the action of the trypsin. Clumps of cells are broken apart by forceful repipetting with a 10 mL glass pipette. The resulting single cell suspension is counted using trypan blue exclusion and the total number of cells per tube recorded as the starting cell number.
# (§8) Cells suspended in RPMI/FBS are preincubated with or without BPTU for 30 minutes, followed by addition of a given dose of 5-FUra. Tables 1 and 2 present the cell growth inhibition after 72 hours incubation with varying concentrations of 5-FUra, in the presence or absence of preincubation with 10 micromolar BPTU.
# (§9) Similarly, Table 2 reports the effects of 5-FUra used in conjunction with BPTU on ™HCT-8 cells.
# [2] = tested on: HCT-8.clone 10 (AZT resistant) cells; test: growth inhibition of HCT-8.clone 10 (AZT resistant) cells; type: cell-based, human; details: for inhibition at 10 µM / inhibition at 1 µM / inhibition at 100 µM: Homo sapiens, 72 hours, read-out: Percent Growth Inhibition; for inhibition at 1 µM: 5-FUra 1 micromolar; for inhibition at 100 µM: 5-FUra 100 micromolar
# Description: as §5, §6, §7, §8, §9
# [3] = with BPTU (10 micromolar) preincubated 30 minutes, read-out: Percent Growth Inhibition
# [4] = without BPTU, read-out: Percent Growth Inhibition
# [5] = with BPTU (10 micromolar) preincubated 30 minutes
smiles,measurement,setting,value
"CCc1c(Sc2ccccn2)n(COCc2ccccc2)c(=O)[nH]c1=O [BPTU, 1-benzyloxymethyl-5-ethyl-6-(α-pyridylthio) uracil]",therapeutic index (TI50),HIV-1; 8640 min,> 1.1e+06 mM
same,EC50,"HIV-1; Human immunodeficiency virus 1, CCRF-CEM, 144 h, 6 days, XTT, read-out: effective concentration (EC50)",0.9 nM
same,CC50 at 144 h,[1],> 980 nM
same,inhibition at 10 µM,"HCT-8 cells; 5-FUra 0, with BPTU (10 micromolar) alone, read-out: Percent Growth Inhibition",0%
same,growth inhibitory activity alone,HCT-8 cells; alone at 10 micromolar,not shown to be growth inhibitory
same,inhibition of cell growth in combination with 5-FUra,HCT-8 cells; combination with 5-FUra vs 5-FUra alone,more effectively than 5-FUra alone; also recorded: more effectively than 5FUra alone
same,inhibition at 10 µM,"[2]; 5-FUra 0, with BPTU (10 micromolar) alone",0%
same,growth inhibitory activity alone,"[2]; alone at 10 micromolar, HCT-8.clone 10",not shown to be growth inhibitory
same,inhibition of cell growth in combination with 5-FUra,"[2]; combination with 5-FUra vs 5-FUra alone, HCT-8.clone 10",more effectively than 5FUra alone
"O=c1[nH]cc(F)c(=O)[nH]1 [Example 5-FUra, 5-fluorouracil]",inhibition at 1 µM,HCT-8 cells; [3],33%
same,inhibition at 1 µM,HCT-8 cells; [4],0%
same,inhibition at 3 µM,HCT-8 cells; [3],55%
same,inhibition at 3 µM,HCT-8 cells; [4],9%
same,inhibition at 10 µM,"HCT-8 cells; 5-FUra 10 micromolar, with BPTU (10 micromolar) preincubated 30 minutes, P<0.01, read-out: Percent Growth Inhibition",80%
same,inhibition at 10 µM,"HCT-8 cells; 5-FUra 10 micromolar, without BPTU, read-out: Percent Growth Inhibition",33%
same,inhibition at 1 µM,[2]; [5],23%
same,inhibition at 1 µM,[2]; without BPTU,0%
same,inhibition at 10 µM,"[2]; 5-FUra 10 micromolar, with BPTU (10 micromolar) preincubated 30 minutes, P<0.01",74%
same,inhibition at 10 µM,"[2]; 5-FUra 10 micromolar, without BPTU",29%
same,inhibition at 100 µM,[2]; [5],> 100%
same,inhibition at 100 µM,[2]; without BPTU,56%
